# Data from ChEMBL document CHEMBL1201862, “PubChem BioAssay data set” (2004).
# Calls of active or inactive are those of the source.
# Key:
# [1] = inhibitors of SNCA 5'UTR-driven reporter translation, confirmation, H4 neuroglioma cells, luminescence (AID 1988); assay type: functional, cell-based
# [2] = inhibitors of firefly luciferase expression or activity, dose response, H4 neuroglioma cells, luminescence (AID 1990); assay type: functional, cell-based
# [3] = Luminescence Cell-Based Dose Response HTS to Identify Inhibitors of 5'UTR Stem-Loop Driven Prion Protein mRNA Translation in H4 Neuroglioblastoma Cells. [Related pubchem assays: 1827 (Project Summary), 1813 (Primary HTS)]; assay type: functional
# [4] = inhibitors of intracellular T. cruzi replication, confirmation, NIH3T3 host cells, beta-gal luminescence (AID 2044); assay type: functional, cell-based;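 further: intracellular parasites grown in NIH/3T3 mouse fibroblasts as host cells; luminescent beta-galactosidase reporter signal from transgenic T. cruzi replicating inside host cells; inhibitors lower the luminescence signal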
# [5] = cytotoxicity toward NIH3T3 fibroblasts, dose response, counter-screen, cell-based, ATP luminescence, mouse fibroblasts (AID 2010); assay type: functional;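 further: cells exposed to compound for about 90 hours before reading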
# [6] = target: T1, Heat shock factor protein 1 (Mus musculus, UniProt P38532); test: inhibition of MG132-induced HSE-luciferase signal, confirmation, cell-based, NIH3T3, luminescence, dose retest (AID 2382); assay type: functional;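 further: NIH3T3 fibroblasts with HSF1-driven luciferase reporter stressed by proteasome inhibitor MG132; luminescence from HSF1-driven luciferase expression after 8 hours of MG132 stress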
# T1 sequence (P38532 whole entry): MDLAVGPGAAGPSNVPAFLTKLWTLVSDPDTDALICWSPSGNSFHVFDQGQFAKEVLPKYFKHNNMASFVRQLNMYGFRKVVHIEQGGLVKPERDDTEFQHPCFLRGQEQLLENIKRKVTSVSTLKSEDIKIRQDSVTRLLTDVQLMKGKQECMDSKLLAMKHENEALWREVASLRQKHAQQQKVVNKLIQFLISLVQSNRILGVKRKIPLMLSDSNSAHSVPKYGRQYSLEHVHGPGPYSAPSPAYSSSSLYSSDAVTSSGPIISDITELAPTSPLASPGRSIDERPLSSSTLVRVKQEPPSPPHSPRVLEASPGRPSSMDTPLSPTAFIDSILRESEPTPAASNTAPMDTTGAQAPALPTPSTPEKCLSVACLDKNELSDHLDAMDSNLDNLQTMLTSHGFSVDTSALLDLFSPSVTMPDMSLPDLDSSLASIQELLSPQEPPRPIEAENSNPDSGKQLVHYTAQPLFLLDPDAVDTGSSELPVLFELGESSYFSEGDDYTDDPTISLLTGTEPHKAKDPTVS
# [7] = target: T1, Heat shock factor protein 1; test: HSF1 potentiators in luciferase reporter cells, confirmation, cell-based, NIH3T3, luminescence, dose retest (AID 435004); assay type: functional;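 further: stress induced by proteasome inhibitor MG132 added 30 min after compound; luciferase reporter driven by HSF1 response element in NIH3T3 cells; actives raise luminescence as potentiators of the MG132 stress response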
# Cytochrome P450 2C19 = Cytochrome P450 2C19 (Homo sapiens, UniProt P33261); test: Cytochrome panel assay with activity outcomes. Panel member name: p450-cyp2c19 Compounds with AC50 equal or less than 10 uM are considered active; assay type: functional; settings: read-out: AC50
# Sequence of Cytochrome P450 2C19 (P33261 whole entry): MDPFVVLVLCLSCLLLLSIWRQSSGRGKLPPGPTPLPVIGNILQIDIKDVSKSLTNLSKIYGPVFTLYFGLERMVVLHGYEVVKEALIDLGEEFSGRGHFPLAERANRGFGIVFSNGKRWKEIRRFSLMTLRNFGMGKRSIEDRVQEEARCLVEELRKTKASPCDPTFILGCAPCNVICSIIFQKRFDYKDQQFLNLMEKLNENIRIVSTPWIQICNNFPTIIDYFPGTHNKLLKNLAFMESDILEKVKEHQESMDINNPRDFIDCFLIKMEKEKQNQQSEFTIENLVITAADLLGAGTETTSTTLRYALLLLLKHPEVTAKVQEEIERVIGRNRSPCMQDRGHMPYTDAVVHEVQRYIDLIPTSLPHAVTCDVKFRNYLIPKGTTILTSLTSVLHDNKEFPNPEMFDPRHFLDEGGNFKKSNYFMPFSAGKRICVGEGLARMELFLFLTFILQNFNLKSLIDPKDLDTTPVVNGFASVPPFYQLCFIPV
# [8] = tested on: Streptococcus sp. 'group A'; test: growth inhibition of control SK(-) GAS strain, dose response, counter-screen for streptokinase expression inhibitor project, luminescence, kanamycin, BacTiterGlo, confirmation (AID 1900); assay type: functional, organism-based
# Streptococcus = test: Group A Streptococcus viability loss, dose response, counter-screen for streptokinase expression inhibitor project, luminescence, BacTiterGlo (AID 1915); assay type: functional, organism-based;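 further: potency for reduction of bacterial viability or growth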
smiles,measurement,setting,value
Cc1ccc(-c2csc3ncnc(-n4nnc5ccccc54)c23)cc1C,EC50,[1],> 60 µM (not active)
same,EC50,[2],15 µM (active)
same,EC50,[3],> 120 µM (not active)
CN1CCC(N(C)S(=O)(=O)c2ccc(C(C)(C)C)cc2)CC1,EC50,[4],0.249 µM (active)
same,EC50,[5],35.5 µM (active)
O=C1Nc2ccccc2N(O)N1c1cc(-c2ccccc2Cl)no1,EC50,[1],> 120 µM (not active)
same,EC50,[2],31.6 µM (active)
same,EC50,[3],70.3 µM (active)
O=C(Nc1cccc(-c2nc3ncccc3o2)c1)c1ccco1,EC50,[4],0.249 µM (active)
same,EC50,[5],> 60 µM (not active)
CN1CCN(/N=C/c2cccc(Cl)c2Cl)CC1,EC50,[4],0.321 µM (active)
same,EC50,[5],> 60 µM (not active)
Cc1ccc(OCC(O)CNCc2ccc(F)cc2)cc1 (stereo not drawn),EC50,[4],0.321 µM (active)
same,EC50,[5],> 60 µM (not active)
Cc1ccc(C(C)C)c(OCC(=O)Nc2ccc3c(c2)nc(CCN2CCCCC2)n3C)c1,EC50,[1],11.4 µM (active)
same,EC50,[2],10 µM (active)
same,EC50,[3],35.8 µM (active)
CC(C)NC(=O)N(O)C1N(Cc2ccc3c(c2)OCO3)C(=S)SC1(C)C (stereo not drawn),EC50,[6],> 195 µM (not active)
O=C(CN1CCN(C(c2ccccc2)c2ccccc2)CC1)N1CCOCC1,EC50,[6],> 195 µM (not active)
CN(CCc1ccccc1)C(=O)c1cc(COc2cccc(C(F)(F)F)c2)on1,EC50,[7],> 260 µM (inactive)
COc1ccc(SCCc2ccncc2)cc1,EC50,[4],1.1 µM (active)
same,EC50,[5],> 60 µM (not active)
C=CCC(NCc1ccco1)c1ccc(OC)c(OC)c1 (stereo not drawn),EC50,[7],> 260 µM (inactive)
Cc1ccc2nc(-c3cccc(Br)c3)cc(C(=O)NCC3CCCO3)c2c1 (stereo not drawn),EC50,[6],> 195 µM (not active)
CCOC(=O)Cc1csc(NC(=O)Nc2cccs2)n1,EC50,[6],> 195 µM (not active)
Cc1cccc(C)c1NC(=O)COc1ccccc1C(=O)Nc1ccc(Br)cn1,EC50,[1],94.5 µM (active)
same,EC50,[2],> 120 µM (not active)
same,EC50,[3],> 120 µM (not active)
CCc1ccc(C(=O)COC(=O)CNC(=O)c2cccs2)cc1,EC50,[6],> 195 µM (not active)
Cc1ccc(S(=O)(=O)NCCOc2nc(N3CCOCC3)nc(N3CCOCC3)n2)cc1,EC50,[7],> 260 µM (inactive)
N#Cc1cccc(-c2nc(NCCN3CCOCC3)c3ccccc3n2)c1,AC50,Cytochrome P450 2C19,15.8 µM (inconclusive)
Cc1cccc2c1NC(C)CC2C (stereo not drawn),EC50,[4],4.83 µM (active)
same,EC50,[5],> 30 µM (not active)
O=C(O)CCNS(=O)(=O)c1ccccc1C(F)(F)F,EC50,[6],> 195 µM (not active)
O=C1NC(=O)N(c2ccccc2F)C(=O)/C1=C/NCCC1=CCCCC1,EC50,[7],> 260 µM (inactive)
Cc1cc(C)c(NC(=O)CSc2nncn2-c2cccnc2)c(C)c1,EC50,[6],> 195 µM (not active)
COc1ccc(C(=N)NOC(=O)c2ccc3c(c2)OCO3)cc1OC,EC50,[4],2.5 µM (active)
same,EC50,[5],27 µM (active)
CCCN(CCC)S(=O)(=O)c1ccc(C(=O)Nc2nnc(COC)o2)cc1,EC50,[8],5.99 µM (active)
same,EC50,Streptococcus,4.59 µM (active)
COc1cc(O)cc2c1C(=O)OC(C)CCCC(=O)CCC/C=C\2 (stereo not drawn),EC50,[7],> 260 µM (inactive)
CCOc1cc(/C=C2\C(=N)N3N=C(C)SC3=NC2=O)ccc1OCCOc1ccccc1,EC50,[6],> 195 µM (not active)
Cc1cc(NC(=O)CCC(=O)N(CC(=O)NC2CCCC2)Cc2cccs2)no1,EC50,[7],> 260 µM (inactive)
C[C@H]1[C@H](C)CC[C@]2(C(=O)O)CC[C@]3(C)C(=CC[C@@H]4[C@@]5(C)C[C@@H](O)[C@H](O)C(C)(C)[C@@H]5CC[C@]43C)[C@H]12 [COROSOLIC ACID],EC50,[8],2.92 µM (active)
same,EC50,Streptococcus,2.79 µM (active)
CN1Cc2sc(NC(=S)NC(=O)c3ccccc3)c(C#N)c2CC1(C)C,EC50,[6],13.9 µM (active)
CC(=O)O[C@@]12CO[C@@H]1C[C@H](O)[C@@]1(C)C(=O)[C@H](O)C3=C(C)[C@@H](OC(=O)[C@H](O)[C@@H](NC(=O)OC(C)(C)C)c4ccccc4)C[C@](O)([C@@H](OC(=O)c4ccccc4)[C@H]21)C3(C)C,EC50,[4],< 0.1 µM (active)
Cc1c(Cl)cccc1N=C(S)N(Cc1cccnc1)Cc1ccccc1Cl,EC50,[4],0.516 µM (active)
same,EC50,[5],> 60 µM (not active)
CC(C)(CNC(=O)/C=C/c1ccc(F)cc1)CNC(=O)/C=C/c1ccc(F)cc1,EC50,[7],3.75 µM (active)
COc1ccc(Cl)cc1S(=O)(=O)N1CCC(C(=O)NCCc2ccccc2)CC1,EC50,[6],> 195 µM (not active)
O=C(CN1CC(c2ccccc2)CC1=O)NCc1ccc(F)cc1 (stereo not drawn),EC50,[6],> 195 µM (not active)
CCOc1ccc(C2=Nn3c(nnc3-c3cccnc3)SC2)cc1,EC50,[1],37.8 µM (active)
same,EC50,[2],16 µM (active)
same,EC50,[3],> 120 µM (not active)
COc1ccccc1N(CC(=O)N/N=C(\C)c1ccccc1O)S(=O)(=O)c1ccc(C)cc1,EC50,[4],4.7 µM (active)
same,EC50,[5],5.18 µM (active)
COc1ccc(OCCN2C(=O)c3ccccc3C2=O)cc1,EC50,[6],> 195 µM (not active)
CC(Nc1nc(-c2ccncc2)nc2ccccc12)c1ccccc1 (stereo not drawn),EC50,[4],0.596 µM (active)
same,EC50,[5],4.4 µM (active)
Cn1cc(C(=O)N/N=C/c2cc(Br)cs2)c2ccccc21,EC50,[7],42.9 µM (active)
NC(=O)c1c(NC(=O)Cc2ccccc2)sc2c1CCN(Cc1ccccc1)C2,EC50,[7],> 260 µM (inactive)
COc1ccc(NC(=O)CCc2nnc3ccc(NCc4ccc5c(c4)OCO5)nn23)cc1,EC50,[7],> 260 µM (inactive)
CCN(CC)S(=O)(=O)N1CCC(C(=O)N2CCC3(CC2)OCCO3)CC1,EC50,[1],> 120 µM (not active)
same,EC50,[2],> 120 µM (not active)
same,EC50,[3],17.6 µM (active)
O=c1c(-c2ccccc2)nc2cnc(N3CCNCC3)nc2n1C1CC1,AC50,Cytochrome P450 2C19,39.8 µM (inconclusive)
CCOC(=O)N1CCN(C(=O)c2ccc3nc4ccc(Cl)cc4c(=O)n3c2)CC1,EC50,[1],7.83 µM (active)
same,EC50,[2],> 120 µM (not active)
same,EC50,[3],37.5 µM (active)
Cc1noc(C)c1-c1cc(Nc2ccccc2)ncn1,AC50,Cytochrome P450 2C19,20 µM (inconclusive)
N#Cc1ccccc1Cn1cc(C(=O)c2ccccc2F)c2ccccc21,EC50,[1],> 120 µM (not active)
same,EC50,[2],54.6 µM (active)
same,EC50,[3],> 120 µM (not active)
Cc1cc(N2CCN(c3ccc(F)cc3)CC2)nc2cc(O)ccc12,EC50,[6],> 195 µM (not active)
O=C(Cc1cccs1)N/N=C/c1ccco1,EC50,[8],2.88 µM (active)
same,EC50,Streptococcus,2.18 µM (active)
Cc1cccc(CS(=O)(=O)Cc2ccc(C(=O)NCc3cccs3)o2)c1,EC50,[6],> 195 µM (not active)
COC(=O)C1=C(Nc2ccc(C)cc2)C=C(C)C(C(=O)OC)C1c1cccc(OC)c1 (stereo not drawn),EC50,[4],2.26 µM (active)
same,EC50,[5],6.59 µM (active)
Cc1cc(C)n(-c2cc(N3CCN(S(=O)(=O)c4ccc5ccccc5c4)CC3)ccc2[N+](=O)[O-])n1,EC50,[1],15.7 µM (active)
same,EC50,[2],12 µM (active)
same,EC50,[3],26.7 µM (active)
COC(=O)c1sccc1NC(=O)c1cc(-c2ccc(C)cc2C)nc2ccccc12,AC50,Cytochrome P450 2C19,3.55 µM (inconclusive)
CC1CN(C(=O)c2ccccc2)/C(=N/c2cccc(S(=O)(=O)N(C)C)c2)S1 (stereo not drawn),EC50,[1],> 120 µM (not active)
same,EC50,[2],> 120 µM (not active)
same,EC50,[3],> 120 µM (not active)
CC1CC(C)(C)N=C(S)N1CCC(=O)NCc1ccc(Cl)cc1 (stereo not drawn),EC50,[1],> 120 µM (not active)
same,EC50,[2],> 120 µM (not active)
same,EC50,[3],33.7 µM (active)
COc1ccc(-n2c(C)c(C)c3c(N)ncnc32)cc1,EC50,[6],37.9 µM (active)
COc1ccc(CCNc2ncnc3c2c(C)c(C)n3CCO)cc1OC,EC50,[7],> 260 µM (inactive)
COc1cc2c(c(O)c1OC)C(=O)C(OC)CCC2 (stereo not drawn),AC50,Cytochrome P450 2C19,6.31 µM (inconclusive)
Cc1ccc(-n2nc3c(=O)n(CCCC(=O)NCc4ccc(Cl)cc4)nc(C)c3c2C)cc1,EC50,[1],19.5 µM (active)
same,EC50,[2],0.94 µM (active)
same,EC50,[3],> 120 µM (not active)
COc1ccc(C(C(=O)NC2CCCC2)N(C(=O)c2snc(-c3ccc(F)cc3)c2N)c2ccc(OC)cc2)cc1 (stereo not drawn),EC50,[4],1.59 µM (active)
same,EC50,[5],> 60 µM (not active)
CCCCCn1c(SCc2cccc(C)c2)nc2c1c(=O)[nH]c(=O)n2C,EC50,[7],> 260 µM (inactive)
CCC1CCCCN1S(=O)(=O)c1ccc(C(=O)Nc2nnc(C3CC3)o2)cc1 (stereo not drawn),EC50,[8],4.34 µM (active)
same,EC50,Streptococcus,7.56 µM (active)
O=C(NCCCN1CCOCC1)c1ccc([N+](=O)[O-])cc1[N+](=O)[O-],EC50,[4],0.582 µM (active)
same,EC50,[5],> 30 µM (not active)
